The subject of one data set is SF-295 (glioblastoma). In words: Hollow Fiber Assay (HFA), SF-295 fibers s.c. in mice. The data set is classed as in vivo, BALB/c nude mice. Particulars: 25 mg/kg/day intraperitoneally, 4 days. The procedure:
(§1) Cell culture of SF-295 (glioblastoma) and HCT-116 (colon carcinoma) was performed in RPMI 1640 medium supplemented with 10% fetal bovine serum, 2 mM glutamine, at 37°C with 5% CO2.
(§2) Polyvinylidene fluoride (PVDF) HFs with a 1-mm internal diameter and a molecular weight cutoff point of 500 kDa were used (Spectrum Laboratories, Houston, TX). The fibers were cut into pieces 12–15 cm long, washed 2× with sterile distilled water and kept in sterile conditions.
(§3) Before use, under sterile conditions, the fibers were incubated in complete RPMI with 20% fetal bovine serum (FBS) overnight (packaging time). Cell viability was assessed by trypan blue exclusion assay. Then, a cell suspension of 7.0×10^6 cell/mL at 4°C was injected into the fiber, with the ends thereof immediately heat-sealed. The fibers were cut into 2 cm each, transferred to petri plates and incubated in complete RPMI medium for 24 h prior to implantation in mice. Each cell was injected into one fiber of a different color (HCT-116, yellow fibers; SF-295, blue fibers).
(§4) Each animal received 2 fibers at s.c. site. All incisions were sealed with a surgical stapler.
(§5) Tumor cell proliferation was quantified through the ability of living cells to reduce the yellow dye 3-(4,5-dimethyl-2-thiazolyl)-2,5-diphenyl-2H-tetrazolium bromide (MTT, Sigma Aldrich) to a purple formazan product. For this purpose, the fibers removed from animals were incubated with MTT 1 mg/mL in 6-well plates during 4 h at 37°C, 5% CO2 and 95% humidity. The MTT solution was aspirated; fibers were washed with saline solution containing protamine sulphate 2.5% and incubated in protamine solution overnight at 4°C. Fibers were transferred to 24 well plates, cut into 2 or 3 pieces and put to dry. The formazan was dissolved in […] of DMSO, aliquots (150 uL) were transferred to 96 well plates and absorbance was measured at 595 nm (DTX-880, Beckman Coulter).

In data set [1] the test system is HCT-116 (colon carcinoma). In words: Hollow Fiber Assay (HFA), HCT-116 fibers s.c. in mice. The data set is classed as in vivo, BALB/c nude mice. The following applies: 25 mg/kg/day intraperitoneally, 4 days. The procedure: as §1, §2, §3, §4, §5
In another data set the test system is BALB/c nude mice. Particulars: intraperitoneally for 4 consecutive days, HFA. The protocol: During the HFA, tumor cells (i.e., SF-295 and HCT-116) were cultivated within biocompatible, semipermeable polyvinylidene fluoride hollow fibers (HFs) and subcutaneously (s.c.) implanted within the dorsal portion of BALB/c nude mice. LASSBio-1586 (5b) and 5-Fluorouracil (5-FU), which was the positive control, were administered intraperitoneally for 4 consecutive days. On day 5, the fibers were removed to quantify the antiproliferative activity of 5b and 5-FU.
A total of 26 female BALB/c nude (nu/nu) mice aging 6–8 weeks were obtained from the animal facilities of State University of São Paulo (USP), Faculty of Medicine, São Paulo (SP), Brazil. They were kept in well-ventilated and sterile cages (Alesco, São Paulo) under standard conditions of light (12 h with alternative day and night cycles) and temperature (22±1°C) and were housed with access to commercial sterile rodent stock diet (Nutrilabor, São Paulo, Brazil) and water ad libitum. As previously mentioned procedures are in accordance with guidelines for the welfare of animals in experimental neoplasia and with national and international standard on the care and use of experimental laboratory animals and were approved by the local Ethical Committee on Animal Research (Process No. 102/2007).
Mice were anaesthetized with ketamine (90 mg/kg) - xylazine (4.5 mg/kg) (Sigma Aldrich). Groups were divided into: a) Negative control (DMSO 5%, n = 6); b) Positive control (5-Flouoruracil, 5-FU, 25 mg/kg/day, n = 7) (Sigma Aldrich); c) LASSBio-1586 (5b; 25 mg/kg/day, n = 7); d) LASSBio-1586 (5b; 50 mg/kg/day, n = 6). A small incision in the neck was incised to permit subcutaneous (s.c.) implantation of the fibers in the dorsal part of the animal. Each animal received 2 fibers at s.c. site. All incisions were sealed with a surgical stapler. The test compounds were administered intraperitoneally during 4 consecutive days. On day 5, fibers were removed to quantify the antiproliferative capacity as described above.

Data set [2] in a line: Aqueous solubility assay by ultraviolet spectroscopy. The class given is physicochemical. Particulars: water (saturated aqueous solution), thermodynamic from solid, 2 hours at 37°C, read-out: Aq. Solubility. The protocol:
Ultraviolet spectroscopy was performed using Femto spectrophotometer. The wavelength used in solubility assay was determined by the -λ max characteristic of each compound. Spectra were analyzed in Femtoscan software. Mass spectrometry was obtained by positive ionization at Bruker AmaZon SL and data analyzed in Compass 1.3.SR2 software.
The solubility assay was performed considering the absorptivity of compounds in ultraviolet spectroscopy as described by Schneider and coworkers. The assay wavelength was determined by the λ max characteristic of each compound.
Saturated aqueous solutions were prepared (0.01 mg/mL) and were kept under stirring for 2 hours at 37°C. The supernatant was filtered in 0,45 µm filters and transferred to a quartz cuvette (10 mm) to spectra acquisition.
Solubility was determined by linear regression using as graph plots, solutions prepared by dilutions of the original solution in methanol. The data were obtained in triplicates and the mean values were used to the graph plots. The correlation coefficient (R^2) values were between 0.9972 and 0.9999.

In the next data set the test system is HL-60 (human leukemia). In words: In vitro antiproliferative MTT assay, HL-60. The data set is classed as cell-based. The protocol:
(§6) The antiproliferative activity of compounds 5a–r was determined based on an MTT assay and using CA-4 as standard against the tumor cell lines: HL-60 (human leukemia), SF-295 (human glioblastoma), MDA-MB435 (melanoma), PC3M (prostate cancer), OVCAR-8 (ovaries adenocarcinoma), NCI-H258M (pulmonary bronchio-alveolar carcinoma) and HCT-8 (adenocarcinoma ileocecal) (Table 2). To determine the selectivity index of compounds 5a–r, their antiproliferative profile was also evaluated toward human lymphocytes (Table 2).
(§7) Compounds (0.009–5 µg/mL) were tested for cytotoxic activity against selected cancer cell lines: SF-295 (glioblastoma), HCT-8 (colon), MDAMB-435 (melanoma), HL60 (leukemia), PC3M (prostate cancer), OVCAR-8 (ovaries adenocarcinoma) and NCI-H258M (pulmonary bronchio-alveolar carcinoma). All cell lines were kindly obtained from the National Cancer Institute (Bethesda, MD, USA).Tumor cell proliferation was quantified through the ability of living cells to reduce the yellow dye 3-(4,5-dimethyl-2-thiazolyl)-2,5-diphenyl-2H-tetrazolium bromide (MTT, Sigma Aldrich)) to a purple formazan product and absorbance was measured at 595 nm (DTX-880, Beckman Coulter).

The test system of data set [3] is SF-295 (human glioblastoma). In words: In vitro antiproliferative MTT assay, SF-295. The data set is classed as cell-based. The procedure:
as §6, §7

Data set [4] concerns HCT-8 (adenocarcinoma ileocecal). Briefly: In vitro antiproliferative MTT assay, HCT-8. The class given is cell-based. The procedure: as §6, §7
(In general: Tetrazolium dyes change colour on reduction, which living cells bring about.)

Data set [5] deals with MDA-MB435 (melanoma). Briefly: In vitro antiproliferative MTT assay, MDA-MB435. The class given is cell-based. Particulars: IC50 for human lymphocytes/IC50 for cancer cell line. The procedure: as §6, §7
A further data set relates to PC3M (prostate cancer). In words: In vitro antiproliferative MTT assay, PC3M. The class given is cell-based. The procedure:
as §6, §7

Data set [6] relates to OVCAR-8 (ovaries adenocarcinoma). In words: In vitro antiproliferative MTT assay, OVCAR-8. The data set is classed as cell-based. The protocol:
as §6, §7

Data set [7] concerns NCI-H358M (pulmonary bronchio-alveolar carcinoma). Briefly: In vitro antiproliferative MTT assay, NCI-H358M. The class given is cell-based.
The next data set has as its system human lymphocytes. Briefly: In vitro antiproliferative assay, human lymphocytes. The class given is cell-based. Particulars: Lymphocyte, Table 2. The procedure: as §6
To investigate the selective cytotoxic activity of the N-acylhydrazones derivatives (5a–r), their antiproliferative potency was also assessed toward human lymphocytes and the results were compared to the data from CA-4 ([…]). The selectivity index (SI), which was the IC50 for human lymphocytes/IC50 for cancer cell lines after treatment with CA-4 and N-acylhydrazones (5a–r), was calculated, as depicted in Table 3. […] The best comparative selectivity indices (CA-4 vs 5b) were obtained from the SF-295 (SI = 13), MDA-MB435 (SI = 42) and NCI-H258M (SI = 9.5) tumor cell lines, and the worst results were found for OVCAR-8 (SI = 0.5).

In another data set the test system is tumor cell lines. Briefly: In vitro antiproliferative MTT assay, tumor cell lines (summary over the panel). The data set is classed as cell-based. The following applies: summary in text over the cell lines of Table 2; read-out: IC50 (antiproliferative potency over the tumor cell lines). The procedure:
as §6, §7

Data set [8] deals with MDA-MB435 (melanoma). Briefly: In vitro antiproliferative MTT assay, MDA-MB435. The class given is cell-based. The following applies: Homo sapiens, MDA-MB-435; Table 2; MTT.
[9] abbreviates: IC50 for human lymphocytes/IC50 for cancer cell line.

The solubility is the dissolved amount per volume that the medium holds. For orientation: IC50 means the concentration needed to halve the response being measured. For orientation: melting point means the temperature of the solid-liquid transition.

Values after ≈ are worked out from the molar mass of the structure shown.

As to `O=c1[nH]cc(F)c(=O)[nH]1` [Compound 5-FU, 5-Fluorouracil, reference compound], in the data set with SF-295 (glioblastoma), the “Inhibition (%) SF-295” value was 65.40%. Also, the “Proliferation (OD595 nm) SF-295” value in the data set with SF-295 (glioblastoma) (mean ± S.E.M.) is 0.52±0.08 OD595 nm. The “Inhibition (%) HCT-116” value in data set [1] is given as 62.08%. The “Proliferation (OD595 nm) HCT-116” value in data set [1] (mean ± S.E.M.) was found to be 0.59±0.10 OD595 nm. The “deaths of mice during treatment” value in the data set on BALB/c nude mice is reported as “no deaths occurred”.
The compound `COc1cc(C(=O)N/N=C/c2ccc(-c3ccccc3)cc2)cc(OC)c1OC` [Compound 5n, (E)-N′-(biphenyl-4-ylmethylene)-3,4,5-trimethoxyibenzohydrazide] had a melting point of 187 to 188 °C. In [2], the solubility at 2 h came to 0.0606 µg/mL (≈ 0.155 µM). In the data set on HL-60 (human leukemia) (Homo sapiens, HL-60, Table 2, MTT), this compound came in with an IC50 greater than 25 µM. The “SI Lymphocyte/ HL-60” value in the data set on HL-60 (human leukemia) (setting [9]) came out at 1.0. Moreover, the 50% inhibitory concentration (IC50) in [3] (Homo sapiens, SF-295, Table 2, MTT, read-out: IC50 SF295) is greater than 25 µM. The “SI Lymphocyte/ SF-295” value in data set [3] (setting [9]) was 1.0. Besides, the concentration for half-maximal inhibition (IC50) in data set [4] (Homo sapiens, HCT-8, Table 2, MTT) was greater than 25 µM. The “SI Lymphocyte/ HCT-8” value in data set [4] (setting [9]) is listed as 1.0. The “SI Lymphocyte/ MDA-MB345” value in the data set on MDA-MB435 (melanoma) [5] came out at 1.0. The IC50 in the data set with PC3M (prostate cancer) (Homo sapiens, PC-3M, Table 2, MTT) was greater than 25 µM. Moreover, in the data set with PC3M (prostate cancer) (setting [9]), the “SI Lymphocyte/ PC3M” value worked out at 1. The compound further displayed an IC50 in [6] (Homo sapiens, OVCAR-8, Table 2, MTT) greater than 25 µM. The “SI Lymphocyte/ OVCAR-8” value in [6] (setting [9]) was determined as 1. The “SI Lymphocyte/ NCI-H358M” value in data set [7] (setting [9]) is on record as 1. Also, in data set [7] (NCI-H358M, Table 2, MTT), the IC50 is greater than 25 µM. In the data set on human lymphocytes, this compound yielded a half-maximal inhibitory concentration (IC50) greater than 64.1 µM. Moreover, the half-maximal inhibitory concentration (IC50) with tumor cell lines is greater than 25 µM. In addition, in the data set on MDA-MB435 (melanoma) [8], the IC50 was greater than 25 µM.

Source of the values: paper PMC3948622, “Docking, Synthesis and Antiproliferative Activity of N-Acylhydrazone Derivatives Designed as Combretastatin A4 Analogues” (PLoS ONE, 2014).
